Measured values: US4362743A, “Antibacterial monic acid esters” (Beecham Group Limited, priority 1980, dated 1982)
≈ marks a conversion by molar mass, not a printed value. Read-outs that look alike come from different tables or passages of the source.

What was measured:
[1] = tested on: Haemophilus influenzae Wy21; assay: Human bacteria MIC; type: cell-based; conditions: Haemophilus influenzae Wy21; nutrient agar, 5% chocolated horse blood, 18 hours 37° C.; read-out: M.I.C.
Description: (§1) The values were determined by serial dilutions in nutrient agar with 5% chocolated horse blood after incubations for 18 hours at 37° C.

[2] = tested on: M. suipneumoniae J2206/183b; assay: Anti-mycoplasmal activity in vitro MIC; type: cell-based; conditions: Mesomycoplasma hyopneumoniae, 144 h
M. suipneumoniae JF 435 = assay: Anti-mycoplasmal activity in vitro MIC; type: cell-based; conditions: Mesomycoplasma hyopneumoniae, JF435, 144 h
M. suipneumoniae MS16 = assay: Anti-mycoplasmal activity in vitro MIC; type: cell-based; conditions: Mesomycoplasma hyopneumoniae
M. pneumoniae ATCC 15492 = assay: Anti-mycoplasmal activity in vitro MIC; type: cell-based; conditions: Mycoplasmoides pneumoniae, ATCC15492, 144 h
M. hyorhinis ATCC 23234 = assay: Anti-mycoplasmal activity in vitro MIC; type: cell-based; conditions: Mesomycoplasma hyorhinis, ATCC23234, 144 h
[3] = tested on: M. hyosynoviae ATCC 25591; assay: Anti-mycoplasmal activity in vitro MIC; type: cell-based; conditions: 144 h
[4] = Serum binding by ultrafiltration; type: in vitro ADME; conditions: pig, porcine serum, 8 mcg/ml, read-out: % bound to pig serum (converted)
Description: Serum binding was assessed by ultrafiltration of porcine serum containing compounds at 8 mcg/ml, and through an Amicon CF50A ultrafiltration cone. Separation of ultrafiltrate was achieved by centrifugation. Unbound concentrations of compound were measured in the ultrafiltrate by microbiological assay (B. subtilis ATCC 6633) against standards prepared in saline.

M. suipneumoniae UCD 1 = assay: Anti-mycoplasmal activity in vitro MIC; type: cell-based; conditions: Mesomycoplasma hyopneumoniae, UCD1, 144 h
[5] = tested on: M. suipneumoniae PW/C/210; assay: Anti-mycoplasmal activity in vitro MIC; type: cell-based; conditions: Mesomycoplasma hyopneumoniae, 144 h
S. typhimurium S18 = assay: Veterinary bacteria MIC; type: cell-based; conditions: Salmonella enterica
Description: (§2) The values were determined using a two fold serial dilutions in Diagnostic Sensitivity Test Agar with an inoculum of 10^4 organisms and incubation for 18 hours at 37° C.

Strep. agalactiae SPA1 = assay: Veterinary bacteria MIC; type: cell-based; conditions: Streptococcus agalactiae, Diagnostic Sensitivity Test Agar, 18 hours 37° C.
Description: as §2

Strep. uberis SPU1 = assay: Veterinary bacteria MIC; type: cell-based; conditions: Streptococcus uberis, Diagnostic Sensitivity Test Agar, 18 hours 37° C.
Description: as §2

[6] = tested on: Strep. suis (Group D) SPS11; assay: Veterinary bacteria MIC; type: cell-based; conditions: Streptococcus suis
Description: as §2

E. coli NCTC 10418 = assay: Veterinary bacteria MIC; type: cell-based; conditions: Escherichia coli
Description: as §2

[7] = tested on: Erysipelothrix rhusiopathiae NCTC 8163; assay: Veterinary bacteria MIC; type: cell-based
Description: as §2

Bord. bronchiseptica B08 = assay: Veterinary bacteria MIC; type: cell-based; conditions: Bordetella bronchiseptica; Bord. bronchiseptica B08; Diagnostic Sensitivity Test Agar, 18 hours 37° C.; read-out: M.I.C.
Description: as §2

Past. multocida PA2 = assay: Veterinary bacteria MIC; type: cell-based; conditions: Pasteurella multocida; Past. multocida PA2; Diagnostic Sensitivity Test Agar, 18 hours 37° C.; read-out: M.I.C.
Description: as §2

[8] = tested on: Staph. aureus 152 (pen. sens); assay: Veterinary bacteria MIC; type: cell-based; conditions: Staphylococcus aureus, Diagnostic Sensitivity Test Agar, 18 hours 37° C.
Description: as §2

[9] = tested on: Corynebacterium pyogenes CY1; assay: Veterinary bacteria MIC; type: cell-based; conditions: Trueperella pyogenes
Description: as §2

E. coli El = assay: Veterinary bacteria MIC; type: cell-based; conditions: Escherichia coli
Description: as §2

Staph. aureus Oxford = assay: Veterinary bacteria MIC; type: cell-based; conditions: Staphylococcus aureus, Diagnostic Sensitivity Test Agar, 18 hours 37° C.
Description: as §2

[10] = tested on: Staph. aureus B4 (pen. resistant); assay: Veterinary bacteria MIC; type: cell-based; conditions: Staphylococcus aureus, Diagnostic Sensitivity Test Agar, 18 hours 37° C.
Description: as §2

S. dublin S7 = assay: Veterinary bacteria MIC; type: cell-based; conditions: Salmonella enterica
Description: as §2

Past. haemolytica PA5 = assay: Veterinary bacteria MIC; type: cell-based; conditions: Mannheimia haemolytica; Past. haemolytica PA5; Diagnostic Sensitivity Test Agar, 18 hours 37° C.; read-out: M.I.C.
Description: as §2

Bord. brochiasetpica B09 = assay: Veterinary bacteria MIC; type: cell-based; conditions: Diagnostic Sensitivity Test Agar, 18 hours 37° C.
Description: as §2

Strep. dysgalactiae SPD1 = assay: Veterinary bacteria MIC; type: cell-based; conditions: Streptococcus dysgalactiae, Diagnostic Sensitivity Test Agar, 18 hours 37° C.
Description: as §2

Past. multocida PA1 = assay: Veterinary bacteria MIC; type: cell-based; conditions: Pasteurella multocida, Diagnostic Sensitivity Test Agar, 18 hours 37° C.
Description: as §2

M. gallisepticum S6 = assay: Anti-mycoplasmal activity in vitro MIC; type: cell-based; conditions: Mycoplasmoides gallisepticum, 144 h; M. gallisepticum S6; Friis broth, 0.9% agarose, 6 days 37° C.; read-out: M.I.C.
Sarcina lutea 8340 = assay: Human bacteria MIC; type: cell-based; conditions: Micrococcus luteus; Sarcina lutea 8340; nutrient agar, 5% chocolated horse blood, 18 hours 37° C.; read-out: M.I.C.
Description: as §1

[11] = M. suipneumoniae J2206/183b, Friis broth, 0.9% agarose, 6 days 37° C., read-out: M.I.C.
[12] = M. suipneumoniae JF 435, Friis broth, 0.9% agarose, 6 days 37° C., read-out: M.I.C.
[13] = M. pneumoniae ATCC 15492, Friis broth, 0.9% agarose, 6 days 37° C., read-out: M.I.C.
[14] = NCTC8163, Erysipelothrix rhusiopathiae NCTC 8163, Diagnostic Sensitivity Test Agar, 18 hours 37° C., read-out: M.I.C.
[15] = S. typhimurium S18, Diagnostic Sensitivity Test Agar, 18 hours 37° C., read-out: M.I.C.
[16] = Strep. suis (Group D) SPS11, Diagnostic Sensitivity Test Agar, 18 hours 37° C., read-out: M.I.C.
[17] = NCTC10418, E. coli NCTC 10418, Diagnostic Sensitivity Test Agar, 18 hours 37° C., read-out: M.I.C.
[18] = Corynebacterium pyogenes CY1, Diagnostic Sensitivity Test Agar, 18 hours 37° C., read-out: M.I.C.
[19] = E. coli El, Diagnostic Sensitivity Test Agar, 18 hours 37° C., read-out: M.I.C.
[20] = S. dublin S7, Diagnostic Sensitivity Test Agar, 18 hours 37° C., read-out: M.I.C.

| SMILES | MIC [1] [µg/mL] | MIC [2, 11] [µg/mL] | MIC (M. suipneumoniae JF 435; [12]) [µg/mL] | MIC (M. pneumoniae ATCC 15492; [13]) [µg/mL] | MIC (M. hyorhinis ATCC 23234) [µg/mL] | fraction unbound [4] | MIC (Strep. agalactiae SPA1) [µg/mL] | MIC (Strep. uberis SPU1) [µg/mL] | MIC [7, 14] [µg/mL] | MIC (Bord. bronchiseptica B08) [µg/mL] | MIC (Past. multocida PA2) [µg/mL] | MIC [8] [µg/mL] | MIC (Staph. aureus Oxford) [µg/mL] | MIC [10] [µg/mL] | MIC (Past. haemolytica PA5) [µg/mL] | MIC (Bord. brochiasetpica B09) [µg/mL] | MIC (Strep. dysgalactiae SPD1) [µg/mL] | MIC (Past. multocida PA1) [µg/mL] | MIC (M. gallisepticum S6) [µg/mL] | MIC (M. suipneumoniae MS16; MS16, 144 h) [µg/mL] | further results |
| --- | --- | --- | --- | --- | --- | --- | --- | --- | --- | --- | --- | --- | --- | --- | --- | --- | --- | --- | --- | --- | --- |
| C/C(=C\C(=O)OCCCC(=NO)c1ccccc1)C[C@@H]1OC[C@H](C[C@@H]2O[C@H]2[C@@H](C)[C@H](C)O)[C@@H](O)[C@H]1O [Example 1, 4-Hydroxyimino-4-phenylbutyl monate A] | 0.5 (≈ 0.989 µM) | 0.25 (≈ 0.494 µM) | 0.25 (≈ 0.494 µM) | 2.5 (≈ 4.94 µM) | 0.1 (≈ 0.198 µM) | < 0.08 | 0.625 (≈ 1.24 µM) | 0.156 (≈ 0.309 µM) | 20 (≈ 39.6 µM) | 40 (≈ 79.1 µM) | 0.625 (≈ 1.24 µM) | 0.625 (≈ 1.24 µM) | 0.625 (≈ 1.24 µM) | 0.625 (≈ 1.24 µM) | 10 (≈ 19.8 µM) | 20 (≈ 39.6 µM) | 0.625 (≈ 1.24 µM) | 2.5 (≈ 4.94 µM) | 10 (≈ 19.8 µM) | – | MIC (M. suipneumoniae MS16; 144 h, M. suipneumoniae MS16, Friis broth, 0.9% agarose, 6 days 37° C., read-out: M.I.C.): 0.1 µg/mL (≈ 0.198 µM); MIC ([3]; M. hyosynoviae ATCC 25591, Friis broth, 0.9% agarose, 6 days 37° C., read-out: M.I.C.): 0.25 µg/mL (≈ 0.494 µM); MIC (M. suipneumoniae UCD 1; M. suipneumoniae UCD 1, Friis broth, 0.9% agarose, 6 days 37° C., read-out: M.I.C.): 0.25 µg/mL (≈ 0.494 µM); MIC ([5]; M. suipneumoniae PW/C/210, Friis broth, 0.9% agarose, 6 days 37° C., read-out: M.I.C.): 0.1 µg/mL (≈ 0.198 µM); MIC (S. typhimurium S18; TYPHIMURIUM, 18 h): > 80 µg/mL; MIC ([6]; 18 h): 5 µg/mL (≈ 9.89 µM); MIC (E. coli NCTC 10418; NCTC10418, 18 h): > 80 µg/mL; MIC ([9]; CY1, 18 h): > 80 µg/mL; MIC (E. coli El; 18 h): > 80 µg/mL; MIC (S. dublin S7; S7, 18 h): > 80 µg/mL |
| CON=C(CCCOC(=O)/C=C(\C)C[C@@H]1OC[C@H](C[C@@H]2O[C@H]2[C@@H](C)[C@H](C)O)[C@@H](O)[C@H]1O)c1ccccc1 [Example 5, 4-Methoxyimino-4-phenylbutyl monate A] | – | 0.5 (≈ 0.962 µM) | 0.5 (≈ 0.962 µM) | – | 0.25 (≈ 0.481 µM) | < 0.068 | 1.25 (≈ 2.41 µM) | 0.625 (≈ 1.2 µM) | – | > 80 | 0.039 (≈ 0.0751 µM) | 0.625 (≈ 1.2 µM) | 0.625 (≈ 1.2 µM) | 0.625 (≈ 1.2 µM) | 80 (≈ 154 µM) | 40 (≈ 77 µM) | 1.25 (≈ 2.41 µM) | 20 (≈ 38.5 µM) | 10 (≈ 19.2 µM) | 0.25 (≈ 0.481 µM) | MIC (Sarcina lutea 8340): > 100 µg/mL; MIC (M. pneumoniae ATCC 15492): 2.5 µg/mL (≈ 4.81 µM); MIC [3]: 0.25 µg/mL (≈ 0.481 µM); MIC (M. suipneumoniae UCD 1): 0.25 µg/mL (≈ 0.481 µM); MIC [5]: 0.25 µg/mL (≈ 0.481 µM); MIC (S. typhimurium S18; [15]): > 80 µg/mL; MIC [6, 16]: 20 µg/mL (≈ 38.5 µM); MIC (E. coli NCTC 10418; [17]): > 80 µg/mL; MIC ([7]; Erysipelothrix rhusiopathiae, NCTC8163, 18 h): 40 µg/mL (≈ 77 µM); MIC [9, 18]: > 80 µg/mL; MIC (E. coli El; [19]): > 80 µg/mL; MIC (S. dublin S7; [20]): > 80 µg/mL |
| C/C(=C\C(=O)OCCCC(=NNC(N)=O)c1ccccc1)C[C@@H]1OC[C@H](C[C@@H]2O[C@H]2[C@@H](C)[C@H](C)O)[C@@H](O)[C@H]1O [Example 2, 4-Phenyl-4-semicarbazonobutyl monate A] | 1 (≈ 1.83 µM) | – | – | 2.5 (≈ 4.56 µM) | 0.25 (≈ 0.456 µM) | < 0.159 | 2.5 (≈ 4.56 µM) | 0.625 (≈ 1.14 µM) | 10 (≈ 18.3 µM) | > 80 | 5 (≈ 9.13 µM) | 5 (≈ 9.13 µM) | 5 (≈ 9.13 µM) | 10 (≈ 18.3 µM) | 80 (≈ 146 µM) | 80 (≈ 146 µM) | 0.625 (≈ 1.14 µM) | 20 (≈ 36.5 µM) | 10 (≈ 18.3 µM) | 0.25 (≈ 0.456 µM) | MIC ([2]; J2206/183B): 0.5 µg/mL (≈ 0.913 µM); MIC (M. suipneumoniae JF 435): 0.5 µg/mL (≈ 0.913 µM); MIC [3]: 0.5 µg/mL (≈ 0.913 µM); MIC (M. suipneumoniae UCD 1): 0.5 µg/mL (≈ 0.913 µM); MIC [5]: 0.25 µg/mL (≈ 0.456 µM); MIC (S. typhimurium S18; [15]): > 80 µg/mL; MIC [6, 16]: 10 µg/mL (≈ 18.3 µM); MIC (E. coli NCTC 10418; [17]): > 80 µg/mL; MIC [9, 18]: > 80 µg/mL; MIC (E. coli El; [19]): > 80 µg/mL; MIC (S. dublin S7; [20]): > 80 µg/mL |
